EP4670722A1, “PROPHYLACTIC OR AMELIORATING AGENT FOR CELL AGING” (Kyowa Pharma Chemical Co., Ltd., priority 2023, dated 2024)

Experiments:
Assay type in all cases: cell-based
[1] = test system: GLS1; test: GLS1 expression analysis (ELISA) in Gin-1; details: human gingival fibroblasts (Gin-1), 50 µg/mL to 1000 µg/mL, 24 hours; effect increased as content increased; Fig. 12
Description: Human gingival fibroblasts (Gin-1) were cultured in DMEM containing 10% FBS. The cultured cells were collected by trypsin treatment. Cells in a state where GLS1 was expressed without addition of the test sample were used for the test. Cells collected by trypsin treatment were seeded in a 6-well plate, and when they reached 80% confluence, DMEM containing the test sample (2'-FL and lactose) at 50 µg/mL, 200 µg/mL, or 1000 µg/mL was added, and cultured for 24 hours in a 37°C, 5% CO2 incubator. The culture supernatant was removed, the cells were washed twice with PBS, and 0.20 mL of RIPA buffer was added to extract total protein. Protein in each protein extract was quantified by the Bradford assay.
(§1) Protein extracts were collected in the same manner as in [Example 10-1 B. Human gastric undifferentiated carcinoma cells (KKLS)], [Example 10-1 C. Mouse microglial cells (BV2)], [Example 10-1 D. Human gingival fibroblasts (Gin-1)], and [Example 10-1 E. Human umbilical vein endothelial cells (HUVEC)], respectively, except that a medium same as the above-mentioned medium but not containing the test sample was used instead of the medium containing the test sample, and protein in each protein extract was quantified by the Bradford assay.
An ELISA method was performed using an antibody against GLS1 to measure the amount of GLS1 in the samples. […]

[2] = test system: Human normal dermal fibroblasts (NB1RGB) with a PDL of 30 or less; test: Cell viability (Cell Counting Kit-8) of tunicamycin-treated dermal fibroblasts; details: NB1RGB PDL of 30 or less, tunicamycin 0.3 µg/mL, 50 µg/mL to 200 µg/mL, 24 hours; effect increased as content increased; Fig. 6
Description: Human normal dermal fibroblasts (NB1RGB) with a PDL of 30 or less were cultured using DMEM containing 10% FBS. The cultured cells were collected by trypsin treatment. The collected cells were seeded in a 96-well plate, and when they reached 100% confluence, tunicamycin was added at 0.3 µg/mL, and the cells were cultured for 24 hours. A group was also prepared in which FBS-free DMEM medium containing a test sample (2'-fucosyllactose) at 50 µg/mL, 100 µg/mL, or 200 µg/mL was added simultaneously with tunicamycin, and cultured for 24 hours. After completion of culture, the viability of human normal dermal fibroblasts was evaluated using Cell Counting Kit-8 (manufactured by Dojindo Laboratories). The measurement wavelength (As) was set to 450 nm, and the reference wavelength was set to 620 nm.
Human normal dermal fibroblasts with a PDL of 30 or less were cultured and the absorbance at a measurement wavelength of 450 nm was measured in the same manner as in Example 5-1, except that tunicamycin and the test sample were not added. The obtained absorbance was designated as Ab, and the cell viability represented by the above formula (1) was determined.

[3] = test system: GLS1; test: GLS1 expression analysis (ELISA) in HUVEC after high glucose treatment; details: human umbilical vein endothelial cells (HUVEC), 50 µg/mL to 1000 µg/mL, 24 hours; effect increased as content increased; Fig. 12
Description: Human umbilical vein endothelial cells (HUVEC) were cultured in DMEM + 10% FBS + 5 mM glucose (normal medium). The cultured cells were collected by trypsin treatment. The collected cells were seeded in a 10 cm dish and cultured for 24 hours in a 37°C, 5% CO2 incubator. Thereafter, a treatment of exposing the cells to DMEM + 10% FBS + 30 mM glucose (high glucose medium) for 10 hours and to normal medium for 14 hours was performed for 7 days. After 7 days, normal medium containing the test sample (2'-FL and lactose) at 50 µg/mL, 200 µg/mL, or 1000 µg/mL was added, and cultured for 24 hours in a 37°C, 5% CO2 incubator. The culture supernatant was removed, the cells were washed twice with PBS, and 0.20 mL of RIPA buffer was added to extract total protein. Protein in each protein extract was quantified by the Bradford assay.
as §1, with “assay. […]” for “assay.”

[4] = test system: human senescent dermal fibroblasts (NB1RGB) with a PDL of 50 or more; test: Cell proliferation rate (MTT) of senescent dermal fibroblasts; details: 50 µg/mL to 200 µg/mL, 2 days, suppression increased as content increased, Fig. 3
Description: Human normal dermal fibroblasts (NB1RGB) with a PDL of 30 or less and human senescent dermal fibroblasts (NB1RGB) with a PDL of 50 or more were each cultured using DMEM containing 10% FBS. The cultured cells were collected by trypsin treatment. The collected cells were seeded in a 96-well microplate at a concentration of 5.0 x 10^3 cells/well and cultured overnight. Thereafter, the cells were cultured for 2 days at 37°C in a medium for fibroblast proliferation (FBS-free) to which a test sample (sucrose or 2'-fucosyllactose) was added to a concentration of 50 µg/mL, 100 µg/mL,or 200 µg/mL. The medium was replaced with FBS-free DMEM medium, then 10 µL/well of 5 mg/mL 3-[4,5-dimethylthiazol-2-yl]-2,5-diphenyltetrazolium bromide (MTT) was added, and the cells were cultured at 37°C for 3 hours. […] After extraction, the absorbance of formazan (As, 492 nm) was measured with a microplate reader. […]
Human normal dermal fibroblasts with a PDL of 30 or less and human senescent fibroblasts with a PDL of 50 or more were each cultured and the absorbance of formazan was measured in the same manner as in Example 2-1, except that no test sample was added. The obtained absorbance was designated as Ab, and the cell proliferation rate represented by the above formula (1) was determined for each case of PDL of 30 or less and PDL of 50 or more.

Structure (SMILES): C[C@@H]1O[C@@H](O[C@H]2[C@H](O[C@H]3[C@H](O)[C@@H](O)C(O)O[C@@H]3CO)O[C@H](CO)[C@H](O)[C@@H]2O)[C@@H](O)[C@H](O)[C@@H]1O (stereo partly shown) [2'-FL, 2'-fucosyllactose]
- GLS1 expression [1]: suppressed GLS1 expression
- endoplasmic reticulum stress (cell viability) [2]: ameliorated endoplasmic reticulum stress
- GLS1 expression [3]: suppressed GLS1 expression
- proliferation of senescent fibroblasts (cell proliferation rate) [4]: suppressed the proliferation of senescent fibroblasts
